From patent US9416138B2, “Benzyl sulfonamide compounds useful as MoGAT-2 inhibitors” (Eli Lilly and Company, priority 2012, dated 2016) come the findings set out here.

Structures are written as SMILES. Where a name gives a salt, the structure may show the parent alone.

In assay [1] the target is T1, human MoGAT-2 (Homo sapiens, UniProt Q3SYC2). Kind of assay: Inhibitory Activity in MOGAT-2 Cell Assay (Caco-2 cells stably transfected with human MoGAT-2, HDG substrate, LC-MS). Details: expressed in transfected cells. The format is cell-based. The following applies: Caco-2 cells expressing human MoGAT-2; 4 hours treatment with HDG/DOPC; read-out: C50 nM (Std Dev.; n*). Here is the method:
The inhibitory activity of compounds against human MoGAT-2 in a cell environment is evaluated in this assay. Caco-2 is a human colon carcinoma cell line and is often used as a model for intestinal epithelial cells. […] The substrate is delivered to cells using as a mixture with DOPC in the form of sonicated vesicles. Seed the Caco2 cells onto 100 mm dishes to be 80% confluent after 24 hours in complete media (3/1 DMEM: F12+10% FBS+20 mM HEPES+gentamicin). Transfect the cells with hMoGAT-2 plasmid (MOGAT-2-pCDNA3.1-Hygro) using Lipofectamine 2000 (Invitrogen). After a 6 hour exposure to the transfection mixture, wash the cells three times in PBS and then add media. Incubate the cells for an additional 18 hours incubation, trypsinize the cells and serially dilute them into 100 mm dishes. Add complete media+400 μg/ml hygromycin and incubate until clones appear. Isolate and transfer the clones into 24 well dishes and grow to confluency. Prepare the RNAs from these clones using a Qiagen RNAeasy kit. Perform Taqman analysis using an ABI inventoried assay (HS00228262) on a 7900 Sequence Detection System (ABI). Analyze the lysates from these clones by Western blot analysis using a goat polyclonal antibody (Santa Cruz, SC-32392 to confirm human MoGAT-2 expression of a 38 kD protein corresponding to MoGAT-2. […] Add 20 ml of buffer (150 mM Tris-Cl pH 7.4, 250 mM sucrose, 1 mM EDTA) to the dried HDG/DOPC mixture while sonicating until the solution becomes clear. Plate the Caco2 cells into a poly-D-lysine coated 96-well plate (the “Cell Plate”) at 37° C., 5% CO2 overnight. […] Trypsinize the cells with 50 μl of trypsin solution and add 50 μl of PBS. Immediately freeze the cells on dry ice and store at -20° C. for LC-MS analysis. Extract the cells with chloroform/methanol as follows: transfer the cells to a 2 ml plate; wash the cell plate with 200 μL methanol and then transfer the methanol wash to the 2 ml plate; wash the cell plate again with 200 μL PBS and transfer the PBS wash to the 2 ml plate. Add chloroform (400 μL) with an internal standard (19.52 ng/mL) DAG (15:0,15:0 (Sigma)), D5-TAG (39.03 ng/mL) CDN (16,16,16) to the 2 mL Plate. Turn the sealed 2 mL Plate up and down (10×), then vortex and spin. Remove 400 μL of the lower layer from the 2 mL plate and add to the wells of another plate the “Final Plate”. Add CHCl3:MeOH (400 μL 2:1) to the 2 mL Plate. Again turn the sealed 2 mL Plate up and down (10×), vortex and spin. Remove 220 μL of the lower layer from the 2 mL Plate and add to the Final Plate. Dry the Final Plate and reconstitute with […] of IPA. […] Monitor the channels to collect data for the D5 C16 TAG internal standard as well as the ether TAG, and […] and […] natural TAGs. Solvent A is 80/20 H2O/Methanol with 20 μM ammonium acetate. Solvent B is 50/50 IPA/THF with 20 μM ammonium acetate. Flow rate is 0.4 mL/min Wash solvents are H2O/MeOH and DCM. Using Xcalibur software extract the areas of the peaks of interest, and export the data to Excel which uses the following formula: (area of ether TAG/area of […] natural TAG)/Area of IS. This ratio effectively accounts for variance of cell number in each well.

The target in assay [2] is T1, human MoGAT-2. Kind of assay: MOGAT-2 Inhibitory Assay (SF9 cell lysate, 14C-oleoyl-CoA, Microscint E extraction). It is filed as biochemical. Details: made in house; host or cells: insect SF9 cells (cell lysate supernatant). The following applies: human MoGAT-2 expressed in SF9 cells, cell extract; 90 minutes at room temperature. Here is the method:
The in vitro inhibitory activity of compounds against human MoGAT-2 is evaluated in this assay. MoGAT-2 transfers an oleoyl group to monooleoyl-glycerol (“MAG”) from oleoyl-CoA to form dioleoyl-glycerol (“DAG”) in the intestinal triglyceride resynthesis pathway. The assay takes advantage of Microscint E extraction, which extracts hydrophobic molecules selectively over hydrophilic ones to separate the ^14C-oleoyl-CoA from ^14C-DAG.
Genetically engineered insect SF9 cells express human MoGAT-2. Prepare the cell lysate in 20 mM of NaCl with protease inhibitor (Roche Cat#11873580001). Homogenize the SF9 cells expressing human MoGAT-2 at 15,000 rpm for 20×2 seconds (PT-3100 Polytrone). Centrifuge the homogenate at 1000 g for 10 minutes at 4° C. Collect the supernatant into a separate tube for protein quantification and activity testing. Purify the glycerol monooleate substrate (Spectrum Chemical, CAS#25496-72-4) chromatographically. Prepare the monoacylglyerol (MAG) substrate in phospholipid vescicles (dioleoyl phosphatidylcholine “DOPC”). Prepare the MAG/DOPC vesicles at 20 mM concentration of total lipids (MAG and DOPC). Prepare different molar ratios of MAG to total lipids for either compound screening (8.9%) or compound kinetic studies (2.6-40%). Mix the appropriate amount of purified MAG and DOPC (Avanti Polar Lipids #850375C) in chloroform in a glass tube. […]

The test system of assay [3] is oil bolus-induced excursion of triglycerides in circulation. Kind of assay: Dog Oil Bolus Model. It is filed as in vivo, dog (male beagles). The following applies: 10 mg/kg dose, olive oil bolus, plasma net TAG AUC, statistically significant (p<0.05). From the text: Inhibiting MoGAT-2 found in the small intestine may be useful for treating hypertriglyceridemia caused by excessive fat intake Inhibition of MoGAT-2 disrupts resynthesis of triglycerides, which reduces secretion of triglycerides from the intestine. Therefore, MoGAT-2 inhibition interferes with a specific process that leads to eventual secretion of triglycerides into the intestine for eventual circulation through the body. To assess the ability of one or more of the exemplified compounds to inhibit MoGAT-2 induced TAG secretion into the intestine as measured in the blood system, the following protocol can be followed:
Twenty one male beagles are enrolled for each study, each dog selected to have a body weight between 9-13 kg. […]
The analyte is the [M+NH4]+ ion of TAG 18:1 18:1 18:1, which has a mass of 902.8 m/z; the internal standard is D5 TAG 16:0 16:0 16:0, which has a mass of 829.8 m/z. […] The percent inhibition of plasma triglyceride is calculated as follows: the (oil bolus group mean of net TAG AUC−oil bolus group mean of net TAG AUC with compound treatment/oil bolus group mean of net TAG AUC)*100. […] The ability of exemplified compounds of the present invention to inhibit MoGAT-2 activity and reduce TAG absorption in vivo can be further evaluated according to this assay.

T1 sequence (Q3SYC2 whole entry): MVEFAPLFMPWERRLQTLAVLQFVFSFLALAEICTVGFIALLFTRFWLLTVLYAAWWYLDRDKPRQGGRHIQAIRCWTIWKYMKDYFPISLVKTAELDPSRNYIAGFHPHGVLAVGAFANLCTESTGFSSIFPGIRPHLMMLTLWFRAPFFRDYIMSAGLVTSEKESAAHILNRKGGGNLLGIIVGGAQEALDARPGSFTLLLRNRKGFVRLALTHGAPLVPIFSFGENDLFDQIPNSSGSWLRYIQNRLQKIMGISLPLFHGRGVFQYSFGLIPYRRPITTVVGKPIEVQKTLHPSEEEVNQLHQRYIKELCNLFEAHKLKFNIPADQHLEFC

Consider `C[C@@H](NS(C)(=O)=O)c1ccc(CNCC2COc3ccccc3N2)cc1` (single isomer, unassigned; isomer 2) [Example 14], for which the IC50 at human MoGAT-2 [1] amounted to 479 nM.

Turning to `C[C@@H](NS(C)(=O)=O)c1ccc(CNC2CCN(c3ccccc3)C2)cc1` (single isomer, unassigned; isomer 2) [Example 19], the IC50 at human MoGAT-2 [1] stood at 105 nM.

On to `C[C@@H](NS(C)(=O)=O)c1ccc(CNCC2COC(c3ccccc3)CO2)cc1` (single isomer, unassigned; isomer 2) [Example 29], for which, at human MoGAT-2 [1], the IC50 was found to be 294 nM.

As to `CS(=O)(=O)N[C@@H](c1ccc(CNC[C@H]2COc3cccnc3O2)cc1)C(F)(F)F` [Example 1, N-{(1S)-1-[4-({[(3S)-2,3-Dihydro[1,4]dioxino[2,3-b]pyridin-3-ylmethyl]amino}methyl)phenyl]-2,2,2-trifluoroethyl}methanesulfonamide hydrochloride], the results for the IC50 on human MoGAT-2 [2] and at human MoGAT-2 [1] were 2.28 nM and 3.8 nM, respectively.

For `C[C@@H](NS(C)(=O)=O)c1ccc(CNC[C@H]2COc3cccnc3O2)cc1.Cl` [Example 2, N-{(1R)-1-[4-({[(3S)-2,3-Dihydro[1,4]dioxino[2,3-b]pyridin-3-ylmethyl]amino}methyl)phenyl]ethyl}methanesulfonamide hydrochloride], in assay [3], the “reduction in TAG 18.1_18.1_18.1” value worked out at 67% and the “reduction in total triglycerides” value was 77%.

For the compound `CS(=O)(=O)N[C@@H](c1ccc(CNCCN2CCc3ccccc3C2=O)cc1)C(F)(F)F` [Example 31, N-{(1S)-2,2,2-Trifluoro-1-[4-({[2-(1-oxo-3,4-dihydroisoquinolin-2(1H)-yl)ethyl]amino}methyl)phenyl]ethyl}methanesulfonamide hydrochloride], the IC50 at human MoGAT-2 [1] worked out at 266 nM.
